Results published in US7595327B2, “Beta-sulfonamide hydroxamic acid inhibitors of tace/matrix metalloproteinase” (priority 2005, dated 2009).
Like-named read-outs stand apart in the source and are kept apart here.

Columns and labels:
[1] = target: T1, TACE (catalytic domain of the recombinant TACE protein) (Homo sapiens, UniProt P78536); assay: TACE FRET assay using TACE Cat; assay type: biochemical; conditions: pro-TNF-α substrate peptide
T1 construct: The catalytic domain of the recombinant TACE protein was expressed and purified; made in house
T1 sequence (P78536 223-474 limits assumed): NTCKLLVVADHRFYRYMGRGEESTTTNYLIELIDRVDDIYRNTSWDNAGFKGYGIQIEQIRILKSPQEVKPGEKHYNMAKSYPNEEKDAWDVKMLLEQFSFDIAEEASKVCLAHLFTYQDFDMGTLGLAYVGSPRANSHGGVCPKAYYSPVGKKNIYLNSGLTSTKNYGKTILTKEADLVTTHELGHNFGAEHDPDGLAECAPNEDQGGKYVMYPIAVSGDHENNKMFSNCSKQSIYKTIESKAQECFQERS
Description: The procedure is essentially as described in Jin, G. et al., Analytical Biochemistry (2002) 302, 269-275, incorporated by reference herein in its entirety. […] K is the IC50. Generally, n and B are floated, noting that n (hill slope) should be close to 1 and B (background offset) to 0.
Pro-TNF-α substrate peptide Abz-[…]-Dpa (AnaSpec, San Jose, Calif., WARC-1) was prepared as a 2 mM stock solution in the TACE assay buffer (50 mM Tris-HCI, pH 7.4, 25 mM NaCl, 4% Glycerol, 0.005% Brij 35). The catalytic domain of the recombinant TACE protein was expressed and purified. The TACE protein (1 ug/ml) was pretreated with the inhibitors at various concentrations for 10 min at room temperature. The reaction was initiated by the addition of the substrate peptide. The increase in fluorescence was monitored at an Excitation of 320 nm and an Emission of 420 nm over a period of 10 min. The initial rate (slope) of the reaction was determined using a fluorescence plate reader (Molecular Devices, Spectra Max Gemini XS).

recombinant human MMP-2 = target: T2, recombinant human MMP-2 (Homo sapiens, UniProt P08253); assay: In-vitro fluorescence assay of MMP-2 activity; assay type: biochemical
T2 sequence (P08253 110-660): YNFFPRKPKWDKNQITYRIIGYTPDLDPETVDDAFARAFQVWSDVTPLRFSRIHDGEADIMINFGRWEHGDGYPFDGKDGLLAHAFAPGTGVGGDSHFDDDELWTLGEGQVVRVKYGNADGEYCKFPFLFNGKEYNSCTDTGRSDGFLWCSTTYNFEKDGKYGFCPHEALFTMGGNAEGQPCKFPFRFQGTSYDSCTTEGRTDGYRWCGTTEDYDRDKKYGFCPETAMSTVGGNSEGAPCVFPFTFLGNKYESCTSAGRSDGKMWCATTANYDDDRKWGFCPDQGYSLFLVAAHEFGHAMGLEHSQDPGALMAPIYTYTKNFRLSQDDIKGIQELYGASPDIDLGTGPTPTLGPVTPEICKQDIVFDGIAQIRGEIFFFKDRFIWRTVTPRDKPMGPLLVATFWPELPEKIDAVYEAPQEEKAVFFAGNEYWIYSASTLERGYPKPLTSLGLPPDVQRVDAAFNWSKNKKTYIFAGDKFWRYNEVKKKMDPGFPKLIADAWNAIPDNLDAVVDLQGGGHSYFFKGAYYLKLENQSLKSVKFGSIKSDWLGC

MMP-13 = MMP-13 (Homo sapiens, UniProt P45452); assay: In-vitro fluorescence assay of MMP-13 activity; assay type: biochemical
Description: See Knight, C. […] […].
The method was essentially the same as for the determination of MMP-1 activity, described above, except that the final concentration of purified MMP in the assay was 0.5 nM, prepared by diluting with the assay buffer.

[2] = system: TNF-α secretion in Raw 264.7 cells; assay: Cell-based assay for inhibition of TNF-α secretion in Raw cells; conditions: Mus musculus, RAW264.7, LPS 100 ng/ml, 4 hr
Description: The basic measurement of the assay is the percentage of inhibition of TNF-α secretion and the IC50 determination by a fitting with the model-39 of LSW data analysis tool. […] Cells are split twice a week by scraping and 1 to 10 or 20 dilutions. For testing compounds, cells are cultured to confluence and are seeded the day before the experiment in 24 well culture dishes at 0.5 to 1 million/ml well. On the next morning, the medium from the overnight culture is replaced with the fresh growth medium. The compounds are added at various concentration at the 0.2% of final DMSO concentrations (10 μl of a 20% DMSO solution containing testing compounds is added to each well). The cells are pre-incubated with compounds for 1 hr. LPS (Sigma, L2262) is added to cells at a final concentration of 100 ng/ml (10 μl of a […] LPS solution freshly diluted from a 1 mg/ml LPS stock solution in PBS is added to each well) and cells are further incubated for 4 hr at 37° C. 1 ml of the supernatant was collected, cells are spun down and the supernatants are frozen at −80° C. until use. The TNF-α and other proinflammatory cytokines were detected by an ELISA assay according to the manufacturer's instructions (Biosource International, Inc., Camarillo, Calif. (For IL-1b measurement in Raw cells, one round of freeze and thaw of the cells was required).

[3] = system: LPS-induced TNF-α secretion in human whole blood; assay: Human whole blood assay for LPS-induced TNF-α secretion; assay type: cell-based; conditions: Homo sapiens, LPS 100 ng/ml, read-out: TNF Secretion HWB IC50
Description: procedure is essentially as described in Newton, R. C., et al., (2001) Ann Rheum […]32, incorporated by reference herein in its entirety. The basic measurement of the assay is the percentage of inhibition of TNF-α secretion and the IC50 determination by a […] model-39 of LSW data analysis tool. 350 μl of fresh human blood drawn from healthy volunteers were pre-incubated with compounds for one hour at the various concentrations at 37° C. with turning generally, the final DMSO concentrations should be kept below 0.2%. At the end of cubation, LPS (Sigma, L2262) was added to the blood at 100 ng/ml and the samples were further incubated for 4 hours or overnight at 37° C. with constant rotation. At the end of the incubation period, 650 μl of serum-free medium was added to the blood samples and the samples were centrifuged at 1500 rpm for 15 minutes. 500 μl of supernate was collected and frozen at -80° C. The TNF-α and other proinflammatory cytokines were detected by ELISA assay according to the manufacturer's instruction (Biosource International, Inc., Camarillo, Calif.).

Row | SMILES | IC50 ([1]; FRET, read-out: TACE IC50) | IC50 (recombinant human MMP-2) | IC50 (MMP-13) | IC50 [2] | IC50 [3] | IC50 ([1]; TACE IC50, FRET)
1 | Cc1cc(COc2ccc(S(=O)(=O)N[C@H]3[C@@H](C(=O)NO)[C@@H]4CC[C@H]3O4)cc2)c2ccccc2n1 (relative stereo) [Example 2, exo-N-Hydroxy-3-[({4-[(2-methylquinolin-4-yl)methoxy]phenyl}sulfonyl)amino]-7-oxabicyclo[2.2.1]heptane-2-carboxamide] | 0.0022 µM | > 16.7 µM | > 16.7 µM | – | 9.9 µM | –
2 | Cc1cc(COc2ccc(S(=O)(=O)N[C@@H]3[C@@H]4CC[C@@H](C4)[C@@H]3C(=O)NO)cc2)c2ccccc2n1 (relative stereo) [Example 6, endo-N-Hydroxy-3-[({4-[(2-methylquinolin-4-yl)methoxy]phenyl}sulfonyl)amino]bicyclo[2.2.1]heptane-2-carboxamide] | 0.001 µM | > 16.7 µM | > 16.7 µM | – | 47 µM | –
3 | Cc1cc(COc2ccc(S(=O)(=O)N[C@H]3[C@@H](C(=O)NO)[C@H]4C=C[C@@H]3C4)cc2)c2ccccc2n1 (relative stereo) [Example 7, endo-N-Hydroxy-3-[({4-[(2-methylquinolin-4-yl)methoxy]phenyl}sulfonyl)amino]bicyclo[2.2.1]hept-5-ene-2-carboxamide] | 0.0012 µM | > 16.7 µM | > 16.7 µM | – | 34 µM | –
4 | Cc1cc(COc2ccc(S(=O)(=O)N(C)[C@H]3[C@@H](C(=O)NO)[C@H]4C=C[C@@H]3C4)cc2)c2ccccc2n1 (relative stereo) [Example 8, endo-N-Hydroxy-3-[methyl({4-[(2-methylquinolin-4-yl)methoxy]phenyl}sulfonyl)amino]bicyclo[2.2.1]hept-5-ene-2-carboxamide] | 0.0015 µM | > 16.7 µM | > 16.7 µM | – | > 50 µM | –
5 | Cc1cc(COc2ccc(S(=O)(=O)N[C@H]3[C@@H](C(=O)NO)[C@@H]4C=C[C@H]3C4)cc2)c2ccccc2n1 (relative stereo) [Example 9, exo-N-Hydroxy-3-[({4-[(2-methylquinolin-4-yl)methoxy]phenyl}sulfonyl)amino]bicyclo[2.2.1] hept-5-ene-2-carboxamide] | 0.0001 µM | > 16.7 µM | > 16.7 µM | – | 9.3 µM | –
6 | Cc1cc(COc2ccc(S(=O)(=O)N[C@@H]3CC=CC[C@@H]3C(=O)NO)cc2)c2ccccc2n1 (relative stereo) [Example 10, cis-N-hydroxy-6-[({4-[(2-methylquinolin-4-yl)methoxy]phenyl}sulfonyl)amino]cyclohex-3-ene-1-carboxamide] | 0.0011 µM | > 16.7 µM | > 16.7 µM | – | 4.2 µM | –
7 | Cc1cc(COc2ccc(S(=O)(=O)NC3C(C(=O)NO)C4CCC3N4C(=O)OC(C)(C)C)cc2)c2ccccc2n1 (centres unmarked) [Example 37, tert-Butyl 2-[(hydroxyamino)carbonyl]-3-[({4-[(2-methylquinolin-4-yl)methoxy]phenyl}sulfonyl)amino]-7-azabicyclo[2.2.1]heptane-7-carboxylate] | – | > 16.7 µM | > 16.7 µM | – | 59 µM | 0.01 µM
8 | Cc1cc(COc2ccc(S(=O)(=O)NC3C4CCC(N4)C3C(=O)NO)cc2)c2ccccc2n1 (centres unmarked) [Example 38, 3-[4-(2-Methyl-quinolin-4-ylmethoxy)-benzenesulfonylamino]-7-aza-bicyclo[2.2.1]heptane-2-carboxylic acid hydroxyamide] | – | 8.68 µM | > 16.7 µM | – | 26 µM | 0.051 µM

Further lines, with some results ahead:

Row | IC50 ([1]; FRET, read-out: TACE IC50) | IC50 (recombinant human MMP-2) | IC50 (MMP-13) | IC50 [2] | IC50 [3] | SMILES | IC50 ([1]; TACE IC50, FRET)
9 | 0.0005 µM | > 16.7 µM | 14.4 µM | 0.46 µM | 0.8 µM | Cc1cc(COc2ccc(S(=O)(=O)N[C@@H]3CCN(C(=O)OC(C)(C)C)CC3C(=O)NO)cc2)c2ccccc2n1 (mixture of isomers) [Example 28, tert-Butyl (3S,4R)-3-[(hydroxyamino)carbonyl]-4-[({4-[(2-methylquinolin-4-yl)methoxy]phenyl}sulfonyl)amino]piperidine-1-carboxylate] | –
10 | – | > 16.7 µM | > 16.7 µM | 0.08 µM | 2.2 µM | Cc1cc(COc2ccc(S(=O)(=O)N[C@@H]3CCCC[C@@H]3C(=O)NO)cc2)c2ccccc2n1 (relative stereo) [Example 12, cis-N-hydroxy-2-[({4-[(2-methylquinolin-4-yl)methoxy]phenyl}sulfonyl)amino]cyclohexanecarboxamide] | –
11 | – | > 16.7 µM | > 16.7 µM | 0.09 µM | 0.27 µM | Cc1cc(COc2ccc(S(=O)(=O)N[C@@H]3CNC[C@@H]3C(=O)NO)cc2)c2ccccc2n1 (relative stereo) [Example 22, cis-N-Hydroxy4-[({4-[(2-methylquinolin-4-yl)methoxy]phenyl}sulfonyl)amino]pyrrolidine-3-carboxamide] | –
12 | – | > 16.7 µM | > 16.7 µM | 0.911 µM | 43 µM | Cc1cc(COc2ccc(S(=O)(=O)N(C)[C@H]3CCCC[C@@H]3C(=O)NO)cc2)c2ccccc2n1 (relative stereo) [Example 61, trans-N-hydroxy-2-[methyl({4-[(2-methylquinolin-4-yl)methoxy]phenyl}sulfonyl)amino]cyclohexanecarboxamide] | –
13 | 0.172 µM | – | – | – | – | CN(C1C2CCC(C2)C1C(=O)NO)S(=O)(=O)c1ccc(OCc2ccc3ccccc3c2)cc1 (stereo in doubt) [Example 39, (1R,2S,3R,4S)-N-hydroxy-3-(methyl{[4-(2-naphthylmethoxy)phenyl]sulfonyl}amino)bicyclo[2.2.1]heptane-2-carboxamide] | –
14 | 0.056 µM | – | – | – | – | CN(C1C2CCC(C2)C1C(=O)NO)S(=O)(=O)c1ccc(OCc2ccc3nonc3c2)cc1 (stereo in doubt) [Example 40, (1R,2S,3R,4S)-3-[{[4-(2,1,3-benzoxadiazol-5-ylmethoxy)phenyl]sulfonyl}(methyl)amino]-N-hydroxybicyclo[2.2.1]heptane-2-carboxamide] | –
15 | – | – | – | 0.44 µM | 14 µM | Cc1cc(COc2ccc(S(=O)(=O)N[C@@H]3CCC[C@]3(CO)C(=O)NO)cc2)c2ccccc2n1 [Example 58] | –
